# Active and inactive are the calls of the source.
# Key:
# [1] = target: T1, Aryl hydrocarbon receptor (Homo sapiens, UniProt P35869); conditions: Potency;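 note: confirmatory quantitative high-throughput screen measuring activation of the AhR signaling pathway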
# T1 sequence (P35869 whole entry): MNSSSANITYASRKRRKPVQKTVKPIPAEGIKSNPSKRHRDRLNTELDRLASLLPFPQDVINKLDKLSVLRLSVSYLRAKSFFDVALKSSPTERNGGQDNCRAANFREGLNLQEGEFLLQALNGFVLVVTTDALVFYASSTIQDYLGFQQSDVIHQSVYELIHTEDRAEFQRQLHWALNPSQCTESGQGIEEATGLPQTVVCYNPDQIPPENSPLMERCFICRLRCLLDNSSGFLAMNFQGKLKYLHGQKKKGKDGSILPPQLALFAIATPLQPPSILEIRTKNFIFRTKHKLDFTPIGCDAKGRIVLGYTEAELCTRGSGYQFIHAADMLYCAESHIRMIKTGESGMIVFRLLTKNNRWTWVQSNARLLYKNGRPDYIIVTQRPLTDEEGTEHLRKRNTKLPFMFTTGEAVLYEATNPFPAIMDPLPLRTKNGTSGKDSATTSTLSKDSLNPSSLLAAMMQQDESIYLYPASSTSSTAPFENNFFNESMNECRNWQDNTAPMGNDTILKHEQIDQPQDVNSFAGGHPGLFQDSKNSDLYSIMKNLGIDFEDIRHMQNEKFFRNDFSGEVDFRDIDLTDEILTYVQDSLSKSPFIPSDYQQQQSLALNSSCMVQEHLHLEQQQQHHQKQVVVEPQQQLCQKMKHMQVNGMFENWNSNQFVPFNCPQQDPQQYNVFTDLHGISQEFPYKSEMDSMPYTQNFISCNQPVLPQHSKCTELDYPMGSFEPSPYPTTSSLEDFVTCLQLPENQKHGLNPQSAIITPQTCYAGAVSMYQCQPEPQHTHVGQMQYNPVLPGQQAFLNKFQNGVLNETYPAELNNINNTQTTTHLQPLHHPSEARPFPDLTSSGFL
# [2] = target: FAD-linked sulfhydryl oxidase ALR (Homo sapiens, UniProt P55789); assay: inhibitors of human ALR sulfhydryl oxidase, dose response, biochemical, H2O2 detection, luminescence, cherry-pick (AID 493248)
# Albumin = Albumin (Bos taurus, UniProt P02769); assay: Counterscreen for inhibitors of T-cell receptor (TCR)-CD3 interaction: Fluorescence-based biochemical high throughput dose response assay to identify inhibitors of T-cell receptor (TCR)-CD3 interaction using a TAMRA-labeled BSA probe.; type: functional
# [3] = target: SWI/SNF-related matrix-associated actin-dependent regulator of chromatin subfamily A member 2 (Homo sapiens, UniProt P51531); assay: Luminescence-based cell-based high throughput dose response assay to identify activators of the function of SWI/SNF related, matrix associated, actin dependent regulator of chromatin, subfamily a, member 2 (SMARCA2, BRM).; type: functional
# [4] = Counterscreen for activators of the function of SWI/SNF related, matrix associated, actin dependent regulator of chromatin, subfamily a, member 2 (SMARCA2, BRM): Luminescence-based cell-based high throughput dose response assay to identify non-selective compounds using the VP16 reporter assay.; type: functional
# [5] = Luminescence Cell-Based Dose Response HTS to Identify Inhibitors of 5'UTR Stem-Loop Driven Prion Protein mRNA Translation in H4 Neuroglioblastoma Cells. [Related pubchem assays: 1827 (Project Summary), 1813 (Primary HTS)]; type: functional
# [6] = inhibitors of SNCA 5'UTR-driven reporter translation, confirmation, H4 neuroglioma cells, luminescence (AID 1988); type: functional, cell-based
# cells [7] = type: functional, cell-based
# [8] = target: T2, Nuclear receptor subfamily 0 group B member 1 (Homo sapiens, UniProt P51843); type: functional, cell-based;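 note: HEK293T cells transfected with SF-1 and DAX-1 plus StAR promoter luciferase reporter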
# T2 sequence (P51843 whole entry): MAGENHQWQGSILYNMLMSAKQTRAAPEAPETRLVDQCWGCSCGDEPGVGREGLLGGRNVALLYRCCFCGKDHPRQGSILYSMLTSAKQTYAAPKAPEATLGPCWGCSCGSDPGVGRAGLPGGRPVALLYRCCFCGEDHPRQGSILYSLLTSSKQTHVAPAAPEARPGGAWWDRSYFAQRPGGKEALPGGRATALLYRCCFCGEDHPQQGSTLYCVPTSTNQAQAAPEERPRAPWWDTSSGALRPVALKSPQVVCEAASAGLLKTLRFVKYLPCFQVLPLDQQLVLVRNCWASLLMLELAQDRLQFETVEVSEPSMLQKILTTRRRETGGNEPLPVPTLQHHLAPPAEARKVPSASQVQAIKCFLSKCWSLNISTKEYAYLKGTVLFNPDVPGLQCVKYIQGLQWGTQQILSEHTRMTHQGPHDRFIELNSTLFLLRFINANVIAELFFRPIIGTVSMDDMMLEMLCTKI
# [9] = target: T3, DNA repair protein RAD52 homolog (Homo sapiens, UniProt P43351); type: functional, biochemical
# T3 sequence (P43351 whole entry): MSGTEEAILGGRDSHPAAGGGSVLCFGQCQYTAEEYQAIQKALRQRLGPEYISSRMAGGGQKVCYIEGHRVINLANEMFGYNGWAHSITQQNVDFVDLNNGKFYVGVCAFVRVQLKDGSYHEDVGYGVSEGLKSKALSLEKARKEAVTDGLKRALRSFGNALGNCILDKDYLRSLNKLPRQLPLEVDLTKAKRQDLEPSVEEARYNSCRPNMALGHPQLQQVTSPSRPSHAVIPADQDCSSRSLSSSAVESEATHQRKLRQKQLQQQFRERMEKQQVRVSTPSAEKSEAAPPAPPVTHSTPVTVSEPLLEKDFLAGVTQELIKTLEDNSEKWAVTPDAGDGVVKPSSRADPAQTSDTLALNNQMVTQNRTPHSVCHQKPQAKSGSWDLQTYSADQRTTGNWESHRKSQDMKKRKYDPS
# [10] = target: T4, Carboxy-terminal domain RNA polymerase II polypeptide A small phosphatase 1 (Homo sapiens, UniProt Q9GZU7); assay: inhibitors of CTDSP1, concentration-response testing, biochemical assay, absorbance-based, actives from ultra-high-throughput screening (AID 540297); type: functional
# T4 sequence (Q9GZU7 whole entry): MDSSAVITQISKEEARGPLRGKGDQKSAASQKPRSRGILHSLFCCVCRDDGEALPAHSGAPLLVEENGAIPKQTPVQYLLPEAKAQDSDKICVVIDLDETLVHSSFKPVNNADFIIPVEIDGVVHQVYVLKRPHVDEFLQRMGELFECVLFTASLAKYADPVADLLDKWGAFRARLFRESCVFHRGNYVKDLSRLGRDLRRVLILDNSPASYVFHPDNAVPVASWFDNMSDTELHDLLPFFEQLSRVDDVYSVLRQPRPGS
# [11] = target: DNA (cytosine-5)-methyltransferase 1 (Homo sapiens, UniProt P26358); assay: DNMT1 methyltransferase inhibitors, confirmation, biochemical, fluorescent molecular beacon (AID 602386); type: functional
# [12] = cytotoxicity in HEK-293T cells, dose response, cytotoxicity control for TCR NF-kB inhibitor project, luminescence, T-cell screen hits (AID 489026); type: functional, cell-based;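 note: cells exposed to compound about 14 hours before the viability readout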
# [13] = target: T5, Microphthalmia-associated transcription factor (Homo sapiens, UniProt O75030); assay: TRPM1 promoter luciferase signal decrease, dose response, MITF inhibitor project, cell-based, SK-MEL-5, cherry-picked, set 3 (AID 493073); type: functional
# T5 sequence (O75030 whole entry): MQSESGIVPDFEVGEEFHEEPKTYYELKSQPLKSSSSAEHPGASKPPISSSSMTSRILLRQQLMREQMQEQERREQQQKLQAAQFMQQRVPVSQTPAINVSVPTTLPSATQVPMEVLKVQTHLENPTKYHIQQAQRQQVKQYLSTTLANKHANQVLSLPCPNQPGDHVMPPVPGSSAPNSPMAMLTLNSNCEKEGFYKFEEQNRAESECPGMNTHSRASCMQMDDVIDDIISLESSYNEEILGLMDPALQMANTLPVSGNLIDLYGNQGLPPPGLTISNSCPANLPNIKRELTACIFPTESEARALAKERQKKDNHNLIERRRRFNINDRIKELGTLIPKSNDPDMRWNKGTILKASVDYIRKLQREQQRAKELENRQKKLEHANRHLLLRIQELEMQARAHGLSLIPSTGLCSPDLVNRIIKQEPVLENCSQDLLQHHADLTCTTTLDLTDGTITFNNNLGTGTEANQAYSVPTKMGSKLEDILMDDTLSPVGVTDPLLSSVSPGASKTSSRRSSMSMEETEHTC
# Paired box protein Pax-8 = Paired box protein Pax-8 (Homo sapiens, UniProt Q06710); assay: inhibitors of PAX8-driven TPO luciferase reporter, dose response, RMG-I cells, cherry-pick (AID 687027); type: functional, cell-based;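 note: luciferase reporter driven by Pax8 target thyroperoxidase promoter measured by SteadyGlo luminescence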
# [14] = microbe, parasite or virus in culture; type: functional; conditions: Mycobacterium tuberculosis
# [15] = THP-1 cell cytotoxicity, dose response, cytotoxicity control for non-replicating M. tuberculosis project (AID 489025); type: functional
# [16] = Vero E6 cell cytotoxicity, dose response, cytotoxicity control for non-replicating M. tuberculosis project, secondary assay (AID 492998); type: functional, VeroE6; conditions: Vero C1008
# cells [17] = type: functional
# [18] = target: T6, DNA repair and recombination protein RAD54-like (Homo sapiens, UniProt Q92698); assay: inhibitors of human RAD54 branch migration, confirmation, biochemical, fluorescence, cherry-picked samples, dose series (AID 651657); type: functional
# T6 sequence (Q92698 whole entry): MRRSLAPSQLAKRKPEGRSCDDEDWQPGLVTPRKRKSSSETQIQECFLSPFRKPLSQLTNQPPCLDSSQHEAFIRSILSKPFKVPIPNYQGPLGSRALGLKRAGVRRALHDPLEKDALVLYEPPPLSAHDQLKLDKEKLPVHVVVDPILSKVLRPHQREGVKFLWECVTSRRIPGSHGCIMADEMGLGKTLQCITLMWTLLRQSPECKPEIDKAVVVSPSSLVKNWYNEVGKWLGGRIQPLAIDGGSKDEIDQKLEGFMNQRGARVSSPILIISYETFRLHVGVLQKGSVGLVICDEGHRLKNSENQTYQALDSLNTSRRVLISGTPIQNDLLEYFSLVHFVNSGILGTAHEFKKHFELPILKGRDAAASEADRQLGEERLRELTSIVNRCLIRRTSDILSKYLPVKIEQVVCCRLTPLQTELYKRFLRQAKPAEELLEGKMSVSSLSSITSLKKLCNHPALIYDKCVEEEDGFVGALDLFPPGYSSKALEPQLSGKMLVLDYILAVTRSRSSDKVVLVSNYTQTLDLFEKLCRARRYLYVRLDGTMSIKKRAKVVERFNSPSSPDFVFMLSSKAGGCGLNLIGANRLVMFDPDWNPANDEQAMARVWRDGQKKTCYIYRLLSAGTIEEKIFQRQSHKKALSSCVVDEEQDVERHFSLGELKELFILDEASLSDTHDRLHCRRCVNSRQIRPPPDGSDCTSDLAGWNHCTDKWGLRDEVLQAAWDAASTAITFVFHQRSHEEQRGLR
# [19] = inhibitors of firefly luciferase expression or activity, dose response, H4 neuroglioma cells, luminescence (AID 1990); type: functional, cell-based
# SWI/SNF-related matrix-associated actin-dependent regulator of chromatin subfamily A member 2, sequence (P51531 whole entry): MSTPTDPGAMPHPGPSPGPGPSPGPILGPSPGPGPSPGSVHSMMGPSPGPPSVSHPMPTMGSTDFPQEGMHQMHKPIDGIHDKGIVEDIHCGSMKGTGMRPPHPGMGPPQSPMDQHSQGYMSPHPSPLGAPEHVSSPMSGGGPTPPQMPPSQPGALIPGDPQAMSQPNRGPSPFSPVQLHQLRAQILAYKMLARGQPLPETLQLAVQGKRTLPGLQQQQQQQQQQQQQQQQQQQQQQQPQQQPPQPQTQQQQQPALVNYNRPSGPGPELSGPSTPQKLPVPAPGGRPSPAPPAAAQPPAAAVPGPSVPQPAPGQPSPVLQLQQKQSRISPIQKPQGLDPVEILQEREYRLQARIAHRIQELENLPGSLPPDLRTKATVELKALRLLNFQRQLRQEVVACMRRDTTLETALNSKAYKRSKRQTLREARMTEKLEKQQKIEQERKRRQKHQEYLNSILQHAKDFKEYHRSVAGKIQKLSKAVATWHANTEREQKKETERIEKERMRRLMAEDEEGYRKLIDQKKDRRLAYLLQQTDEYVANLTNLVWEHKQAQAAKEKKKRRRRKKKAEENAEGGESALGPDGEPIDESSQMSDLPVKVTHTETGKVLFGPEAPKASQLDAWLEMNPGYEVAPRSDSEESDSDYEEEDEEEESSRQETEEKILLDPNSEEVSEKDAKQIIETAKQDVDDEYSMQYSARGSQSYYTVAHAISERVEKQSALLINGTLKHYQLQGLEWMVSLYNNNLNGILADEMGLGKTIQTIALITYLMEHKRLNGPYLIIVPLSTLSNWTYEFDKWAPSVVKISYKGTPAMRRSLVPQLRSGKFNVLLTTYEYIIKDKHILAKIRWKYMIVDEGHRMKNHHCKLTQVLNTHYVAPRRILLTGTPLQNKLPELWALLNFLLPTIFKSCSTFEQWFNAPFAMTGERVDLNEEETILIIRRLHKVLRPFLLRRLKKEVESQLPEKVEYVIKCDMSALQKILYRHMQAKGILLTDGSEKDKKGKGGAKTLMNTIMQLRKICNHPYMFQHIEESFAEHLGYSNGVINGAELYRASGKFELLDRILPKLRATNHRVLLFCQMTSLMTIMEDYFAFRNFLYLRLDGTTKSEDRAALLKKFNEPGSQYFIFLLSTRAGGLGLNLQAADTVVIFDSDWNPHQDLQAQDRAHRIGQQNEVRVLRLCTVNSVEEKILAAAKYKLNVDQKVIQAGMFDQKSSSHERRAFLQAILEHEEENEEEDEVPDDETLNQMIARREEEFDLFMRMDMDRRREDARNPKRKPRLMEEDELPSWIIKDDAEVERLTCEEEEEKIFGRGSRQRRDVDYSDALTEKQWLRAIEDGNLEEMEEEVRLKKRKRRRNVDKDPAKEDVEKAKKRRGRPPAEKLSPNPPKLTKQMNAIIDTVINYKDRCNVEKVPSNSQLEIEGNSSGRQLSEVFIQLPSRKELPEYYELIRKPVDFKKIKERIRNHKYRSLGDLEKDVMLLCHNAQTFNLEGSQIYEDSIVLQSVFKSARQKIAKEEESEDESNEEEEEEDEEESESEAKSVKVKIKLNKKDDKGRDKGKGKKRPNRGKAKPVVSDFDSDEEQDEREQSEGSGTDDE
# DNA (cytosine-5)-methyltransferase 1, sequence (P26358 whole entry): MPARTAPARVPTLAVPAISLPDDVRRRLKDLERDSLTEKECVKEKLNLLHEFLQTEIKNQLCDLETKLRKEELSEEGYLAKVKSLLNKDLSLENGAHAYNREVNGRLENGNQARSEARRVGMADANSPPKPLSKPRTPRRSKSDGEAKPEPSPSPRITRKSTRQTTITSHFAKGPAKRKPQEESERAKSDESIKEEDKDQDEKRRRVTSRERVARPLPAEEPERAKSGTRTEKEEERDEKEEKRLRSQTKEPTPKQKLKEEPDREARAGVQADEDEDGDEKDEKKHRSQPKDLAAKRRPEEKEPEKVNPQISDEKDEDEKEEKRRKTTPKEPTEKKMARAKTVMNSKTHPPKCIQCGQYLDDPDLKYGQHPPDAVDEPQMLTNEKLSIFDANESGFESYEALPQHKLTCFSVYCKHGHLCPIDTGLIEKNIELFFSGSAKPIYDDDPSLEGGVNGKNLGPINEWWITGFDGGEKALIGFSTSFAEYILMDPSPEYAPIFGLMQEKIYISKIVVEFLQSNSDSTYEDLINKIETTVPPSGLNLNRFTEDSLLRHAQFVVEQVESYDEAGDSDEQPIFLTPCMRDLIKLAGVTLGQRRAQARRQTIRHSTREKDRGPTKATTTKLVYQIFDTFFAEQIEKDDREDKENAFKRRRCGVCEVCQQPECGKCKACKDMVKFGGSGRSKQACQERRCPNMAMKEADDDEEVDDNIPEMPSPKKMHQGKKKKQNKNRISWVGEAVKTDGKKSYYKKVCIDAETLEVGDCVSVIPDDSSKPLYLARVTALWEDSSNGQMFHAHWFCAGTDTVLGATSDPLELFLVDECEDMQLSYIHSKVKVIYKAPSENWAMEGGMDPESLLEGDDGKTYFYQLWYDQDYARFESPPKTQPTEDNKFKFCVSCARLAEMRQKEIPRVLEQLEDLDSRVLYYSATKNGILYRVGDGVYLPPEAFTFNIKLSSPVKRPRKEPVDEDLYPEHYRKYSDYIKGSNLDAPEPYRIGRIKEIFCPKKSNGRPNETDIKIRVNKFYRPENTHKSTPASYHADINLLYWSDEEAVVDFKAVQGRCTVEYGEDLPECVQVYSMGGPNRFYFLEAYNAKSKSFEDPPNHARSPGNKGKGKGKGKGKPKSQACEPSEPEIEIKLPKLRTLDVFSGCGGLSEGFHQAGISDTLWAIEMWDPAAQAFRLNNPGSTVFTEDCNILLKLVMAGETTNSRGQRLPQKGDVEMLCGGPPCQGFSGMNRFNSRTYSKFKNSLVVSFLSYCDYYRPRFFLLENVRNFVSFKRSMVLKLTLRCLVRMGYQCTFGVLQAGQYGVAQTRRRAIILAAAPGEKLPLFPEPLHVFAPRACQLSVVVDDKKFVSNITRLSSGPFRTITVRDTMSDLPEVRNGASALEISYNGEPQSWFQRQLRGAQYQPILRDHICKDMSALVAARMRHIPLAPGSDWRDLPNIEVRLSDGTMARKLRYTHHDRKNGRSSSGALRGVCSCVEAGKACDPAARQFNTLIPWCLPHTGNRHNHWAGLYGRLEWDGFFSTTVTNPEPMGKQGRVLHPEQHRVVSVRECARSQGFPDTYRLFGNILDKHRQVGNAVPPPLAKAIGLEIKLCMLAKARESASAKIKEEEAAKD
# Albumin, sequence (P02769 whole entry): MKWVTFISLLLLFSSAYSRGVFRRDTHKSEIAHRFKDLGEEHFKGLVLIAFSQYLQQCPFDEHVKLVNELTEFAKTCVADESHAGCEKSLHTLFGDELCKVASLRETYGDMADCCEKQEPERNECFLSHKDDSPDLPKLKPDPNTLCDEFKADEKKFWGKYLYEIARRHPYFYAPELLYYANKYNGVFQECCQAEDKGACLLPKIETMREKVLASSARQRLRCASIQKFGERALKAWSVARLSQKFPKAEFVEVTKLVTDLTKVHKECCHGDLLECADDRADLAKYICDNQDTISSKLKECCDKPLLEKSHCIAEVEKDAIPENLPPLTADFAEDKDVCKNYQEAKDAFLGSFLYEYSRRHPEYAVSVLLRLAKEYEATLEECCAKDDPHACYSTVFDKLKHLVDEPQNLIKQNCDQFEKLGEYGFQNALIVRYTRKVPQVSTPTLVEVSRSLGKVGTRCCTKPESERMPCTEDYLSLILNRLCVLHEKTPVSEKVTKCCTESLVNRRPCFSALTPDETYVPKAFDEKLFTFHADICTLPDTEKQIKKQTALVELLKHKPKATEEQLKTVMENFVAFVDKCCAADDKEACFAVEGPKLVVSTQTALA
# Paired box protein Pax-8, sequence (Q06710 whole entry): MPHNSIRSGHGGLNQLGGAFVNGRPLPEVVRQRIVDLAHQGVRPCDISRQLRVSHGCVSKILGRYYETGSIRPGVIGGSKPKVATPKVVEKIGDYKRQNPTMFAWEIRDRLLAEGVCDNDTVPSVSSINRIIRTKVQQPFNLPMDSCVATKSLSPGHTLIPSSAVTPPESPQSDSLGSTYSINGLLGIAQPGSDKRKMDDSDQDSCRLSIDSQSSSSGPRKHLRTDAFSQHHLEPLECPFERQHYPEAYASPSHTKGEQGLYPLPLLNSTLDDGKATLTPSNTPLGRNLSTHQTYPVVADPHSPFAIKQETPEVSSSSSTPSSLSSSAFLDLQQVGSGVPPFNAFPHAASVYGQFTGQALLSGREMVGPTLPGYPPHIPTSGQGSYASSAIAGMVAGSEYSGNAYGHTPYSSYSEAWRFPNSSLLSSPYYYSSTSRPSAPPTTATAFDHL
# FAD-linked sulfhydryl oxidase ALR, sequence (P55789 whole entry): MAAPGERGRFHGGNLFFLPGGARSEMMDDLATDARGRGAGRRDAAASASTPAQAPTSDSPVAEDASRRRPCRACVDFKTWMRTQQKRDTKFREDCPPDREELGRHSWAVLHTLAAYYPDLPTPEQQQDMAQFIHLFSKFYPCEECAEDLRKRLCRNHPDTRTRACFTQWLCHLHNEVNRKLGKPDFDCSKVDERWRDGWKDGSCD
smiles,measurement,setting,value
N#Cc1ccccc1 [BENZONITRILE],AC50,[1],7.08 µM (inconclusive)
Cc1cccc(N2C(=O)/C(=C\NNC(=O)c3ccccc3Cl)c3ccccc3C2=O)n1,AC50,[2],9.36 µM (active)
same,IC50,Albumin,> 94.1 µM (inactive)
C=C1c2ccccc2NC(=O)N1c1ccc(OC)cc1,EC50,[3],> 91.1 µM (inactive)
same,EC50,[4],> 91.1 µM (inactive)
O=C(/C=C\Nc1cccc(F)c1)c1ccc2c(c1)OCO2,EC50,[5],7.42 µM (active)
same,EC50,[6],7.2 µM (active)
same,IC50,cells [7],> 67.5 µM (inactive)
same,IC50,[8],> 0.0926 µM (active)
NCCCNC(=S)NCCCN(Cc1ccc(Cl)cc1)c1ccc(Br)cn1,AC50,[9],20.2 µM (active)
Cc1ccccc1NC(=O)CSc1ccsc1[N+](=O)[O-],IC50,[10],2.3 µM (active)
same,IC50,[11],7.7 µM (active)
COc1ccc(COC(=O)c2cc([N+](=O)[O-])ccc2N2CCOCC2)cc1F,IC50,[12],> 80 µM (inactive)
same,AC50,[13],0.023 µM (active)
same,IC50,cells [7],> 67.5 µM (inactive)
same,IC50,[8],> 0.278 µM (active)
same,AC50,Paired box protein Pax-8,< 0.26 µM (active)
CN(C)CCOc1nc(-c2ccccc2)nc2c1oc1ccccc12,CC50,[14],12.5 µM (active)
same,CC50,[15],34 µM (active)
same,CC50,[16],> 20 µM (active)
same,IC50,cells [17],10.7 µM (active)
same,IC50,[11],> 99 µM (inactive)
same,AC50,[18],4.97 µM (active)
same,EC50,[3],> 10.1 µM (inactive)
same,EC50,[4],> 91.2 µM (inactive)
COCc1cc(O)n2nc(-c3ccc(C)cc3)cc2n1,EC50,[3],> 91.2 µM (inactive)
same,EC50,[4],> 91.2 µM (inactive)
CCOc1ccc(N(CC(=O)Nc2ccccc2OCC)S(=O)(=O)c2c(C)noc2C)cc1,EC50,[19],2.32 µM (active)
same,EC50,[5],0.495 µM (active)
same,EC50,[6],0.567 µM (active)
same,IC50,cells [7],> 67.5 µM (inactive)
same,IC50,[8],> 67.5 µM (inactive)
CCOc1cccc2sc(N(CCN(C)C)C(=O)c3cc4ccccc4cc3OC)nc12,AC50,[9],12.5 µM (active)

# Source: ChEMBL document CHEMBL1201862, “PubChem BioAssay data set” (2004)
